Measurements taken from patent US20250230147A1, “LACTAMS AS CBL-B INHIBITORS” (Genentech, Inc., priority 2021, published 2025).
Structures can show the parent of a compound that is named as a salt.

How the values were obtained:
Cbl-b = Cbl-b (Homo sapiens (Human), UniProt Q13191); assay: Cbl-b LCK Ub TR-FRET assay (Cbl-b Lck HTRF); type: biochemical
How it was run: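 TR-FRET (340 nm excitation, 615/665 nm emission) read after adding HA-ubiquitin–UBE2D2 thioester, anti-HA-D2 and streptavidin-Eu. Beforehand, compounds incubated 60 min with biotinylated Cbl-b, then 90 min with His-LCK and ATP (1 mM in 2× mix); IC50 from 10 concentrations, DMSO high and no-LCK low controls.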

c-Cbl = c-Cbl (Homo sapiens (Human), UniProt P22681); assay: C-Cbl LCK Ub TR-FRET assay (c-cbl Lck HTRF); type: biochemical; settings: for (fold-selectivity): C-cbl Lck HTRF IC50 relative to Cbl-b Lck HTRF IC50
Sequence of c-Cbl (P22681 47-435): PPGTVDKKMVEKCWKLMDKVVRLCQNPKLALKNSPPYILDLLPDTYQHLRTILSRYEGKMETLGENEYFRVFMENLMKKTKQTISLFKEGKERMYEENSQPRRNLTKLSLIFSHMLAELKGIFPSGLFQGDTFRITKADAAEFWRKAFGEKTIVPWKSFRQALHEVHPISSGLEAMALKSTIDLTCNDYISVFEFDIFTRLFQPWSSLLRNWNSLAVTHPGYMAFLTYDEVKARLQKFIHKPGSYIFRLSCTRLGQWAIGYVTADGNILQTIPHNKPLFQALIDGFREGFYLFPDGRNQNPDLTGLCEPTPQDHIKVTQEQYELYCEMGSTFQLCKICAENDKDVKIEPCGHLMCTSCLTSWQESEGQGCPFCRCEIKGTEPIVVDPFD
How it was run: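 Detection reagents added, brief spin, 20 min RT. IC50 fit normalized to no-LCK (low) and DMSO (high) controls.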

Sequence of Cbl-b (Q13191 40-426): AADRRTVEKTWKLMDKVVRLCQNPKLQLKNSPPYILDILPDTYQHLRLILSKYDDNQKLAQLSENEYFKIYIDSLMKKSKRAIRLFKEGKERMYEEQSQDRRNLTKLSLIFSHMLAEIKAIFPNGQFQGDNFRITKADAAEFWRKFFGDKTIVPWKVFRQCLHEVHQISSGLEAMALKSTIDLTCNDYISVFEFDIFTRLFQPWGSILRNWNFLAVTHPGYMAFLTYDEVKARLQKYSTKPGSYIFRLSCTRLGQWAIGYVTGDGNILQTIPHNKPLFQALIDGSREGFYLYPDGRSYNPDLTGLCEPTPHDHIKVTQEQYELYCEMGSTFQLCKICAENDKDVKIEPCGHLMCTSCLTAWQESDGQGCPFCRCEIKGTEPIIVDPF

Structure (SMILES)	IC50 (Cbl-b)	IC50 (c-Cbl)	(fold-selectivity) (c-Cbl)
Cn1cc(CNc2cc(C3(Cc4nncn4C)CCC3)cc(N3Cc4c(cc(CNC5(C)CCC5)cc4C(F)(F)F)C3=O)n2)cn1 [Compound 313, 2-(6-(((1-methyl-1H-pyrazol-4-yl)methyl)amino)-4-(1-((4-methyl-4H-1,2,4-triazol-3-yl)methyl)cyclobutyl)pyridin-2-yl)-6-(((1-methylcyclobutyl)amino)methyl)-4-(trifluoromethyl)isoindolin-1-one]	24 nM	23 nM	(0.95x)
CC(C)[C@H]1CN(C)CCN1Cc1cc2c(c(C(F)(F)F)c1)CN(c1cccc(C3(C(F)(F)c4nncn4C)CC(F)(F)C3)c1)C2=O [Compound 432, (S)-2-(3-(1-(difluoro(4-methyl-4H-1,2,4-triazol-3-yl)methyl)-3,3-difluorocyclobutyl)phenyl)-6-((2-isopropyl-4-methylpiperazin-1-yl)methyl)-4-(trifluoromethyl)isoindolin-1-one]	17 nM	13 nM	(0.78x)
Cn1cnnc1CC1(c2cc(NC3CCCC3)nc(N3Cc4c(cc(CNC5(C)CCC5)cc4C(F)(F)F)C3=O)c2)COC1 [Compound 298, 2-(6-(cyclopentylamino)-4-(3-((4-methyl-4H-1,2,4-triazol-3-yl)methyl)oxetan-3-yl)pyridin-2-yl)-6-(((1-methylcyclobutyl)amino)methyl)-4-(trifluoromethyl)isoindolin-1-one]	9.9 nM	13 nM	(1.3x)
Cn1cnnc1[C@@H](F)C1(c2cccc(N3Cc4c(cc(CN5CC6CC6C5)cc4C(F)(F)F)C3=O)c2)COC1 (stereo partly drawn) [Compound 85, 6-((3-azabicyclo[3.1.0]hexan-3 yl)methyl)-2-(3-(3-((S)-fluoro(4-methyl-4H-1,2,4-triazol-3-yl)methyl)oxetan-3-yl)phenyl)-4-(trifluoromethyl)isoindolin-1-one]	180 nM	370 nM	2.0x
CO[C@@H]1CCN(Cc2cc3c(c(C(F)(F)F)c2)CN(c2cccc(C4([C@@H](F)c5nncn5C)COC4)c2)C3=O)C1 [Compound 47, 2-(3-(3-((R)-fluoro(4-methyl-4H-1,2,4-triazol-3-yl)methyl)oxetan-3-yl)phenyl)-6-(((R)-3-methoxypyrrolidin-1-yl)methyl)-4-(trifluoromethyl)isoindolin-1-one]	100 nM	180 nM	1.8x
Cn1cnnc1CC1(c2cccc(N3Cc4c(cc(CN5CC[C@H](CCl)C5)cc4C(F)(F)F)C3=O)c2)COC1 [Compound 102, (S)-6-((3-(chloromethyl)pyrrolidin-1-yl)methyl)-2-(3-(3-((4-methyl-4H-1,2,4-triazol-3-yl)methyl)oxetan-3-yl)phenyl)-4-(trifluoromethyl)isoindolin-1-one]	18 nM	25 nM	1.4x
CC(C)[C@H]1CN(C)CCN1Cc1cc2c(c(C(F)(F)F)c1)CN(c1cccc(C3([C@@H](F)c4nncn4C4CCCCC4)COC3)c1)C2=O [Compound 454, 2-(3-(3-((R)-(4-cyclohexyl-4H-1,2,4-triazol-3-yl)fluoromethyl)oxetan-3-yl)phenyl)-6-(((S)-2-isopropyl-4-methylpiperazin-1-yl)methyl)-4-(trifluoromethyl)isoindolin-1-one]	11000 nM	6200 nM	(0.57x)
CCn1cnnc1[C@H](F)C1(c2cccc(N3Cc4c(cccc4C(F)(F)F)C3=O)c2)COC1 [Compound 272, (R)-2-(3-(3-((4-ethyl-4H-1,2,4-triazol-3-yl)fluoromethyl)oxetan-3-yl)phenyl)-4-(trifluoromethyl)isoindolin-1-one]	8200 nM	11000 nM	(1.3x)
CC(C)[C@H]1CN(CCF)CCN1Cc1cc2c(c(C(F)(F)F)c1)CN(c1cccc(C3([C@H](F)c4nncn4C)COC3)c1)C2=O [Compound 198, 2-(3-(3-((S)-fluoro(4-methyl-4H-1,2,4-triazol-3-yl)methyl)oxetan-3-yl)phenyl)-6-(((S)-4-(2-fluoroethyl)-2-isopropylpiperazin-1-yl)methyl)-4-(trifluoromethyl)isoindolin-1-one]	14 nM	21 nM	1.5x
Cn1cnnc1CC1(c2cccc(N3Cc4c(cc(CN5CCNCC5)cc4C(F)(F)F)C3=O)c2)CC(F)(F)C1 [Compound 437, 2-(3-(3,3-difluoro-1-((4-methyl-4H-1,2,4-triazol-3-yl)methyl)cyclobutyl)phenyl)-6-(piperazin-1-ylmethyl)-4-(trifluoromethyl)isoindolin-1-one]	62 nM	900 nM	(0.97x)
Cn1cnnc1[C@H](F)C1(c2cccc(N3Cc4c(cc(CNCCCF)cc4C(F)(F)F)C3=O)c2)COC1 [Compound 231, (R)-2-(3-(3-(fluoro(4-methyl-4H-1,2,4-triazol-3-yl)methyl)oxetan-3-yl)phenyl)-6-(((3-fluoropropyl)amino)methyl)-4-(trifluoromethyl)isoindolin-1-one]	9.8 nM	81 nM	(0.82x)
CC(C)CNCc1cc2c(c(C(F)(F)F)c1)CN(c1cccc(C3([C@@H](F)c4nncn4C)CC(F)(F)C3)c1)C2=O [Compound 451, (R)-2-(3-(3,3-difluoro-1-(fluoro(4-methyl-4H-1,2,4-triazol-3-yl)methyl)cyclobutyl)phenyl)-6-((isobutylamino)methyl)-4-(trifluoromethyl)isoindolin-1-one]	15 nM	10 nM	(0.71x)
CCCc1cc(C2(Cc3nncn3C)CCC2)cc(N2Cc3c(cc(CNC4(C)CCC4)cc3C(F)(F)F)C2=O)n1 [Compound 343, 2-(4-(1-((4-methyl-4H-1,2,4-triazol-3-yl)methyl)cyclobutyl)-6-propylpyridin-2-yl)-6-(((1-methylcyclobutyl)amino)methyl)-4-(trifluoromethyl)isoindolin-1-one]	13 nM	9.5 nM	(0.74x)
Cn1cnnc1CC1(c2cccc(N3Cc4c(Cl)cc(CNC5(C)CCC5)cc4C3=O)c2)CC(F)(F)C1 [Compound 252, 4-chloro-2-(3-(3,3-difluoro-1-((4-methyl-4H-1,2,4-triazol-3-yl)-methyl)cyclobutyl)phenyl)-6-(((1-methylcyclobutyl)amino)methyl)isoindolin-1-one formate]	13 nM	11 nM	–
CC(C)[C@H]1CN(C)CCN1Cc1cc2c(c(C(F)(F)F)c1)CN(c1cccc(C3(Cc4nncn4C)CC(F)(F)C3)c1)C2=O [Compound 240, (S)-2-(3-(3,3-difluoro-1-((4-methyl-4H-1,2,4-triazol-3-yl)methyl)-cyclobutyl)phenyl)-6-((2-isopropyl-4-methylpiperazin-1-yl)methyl)-4-(trifluoromethyl)iso-indolin-1-one]	54 nM	39 nM	(0.71x)
Cn1cnnc1CC1(c2cc(NC3CCCC3O)nc(N3Cc4c(cccc4C(F)(F)F)C3=O)c2)COC1 (centres unmarked) [Compound 489, 2-(6-((2-hydroxycyclopentyl)amino)-4-(3-((4-methyl-4H-1,2,4-triazol-3-yl)methyl)oxetan-3-yl)pyridin-2-yl)-4-(trifluoromethyl)isoindolin-1-one]	5000 nM	19500 nM	(3.8x)
Cn1cnnc1[C@@H](F)C1(c2cccc(N3Cc4c(cc(CN5CC(O)(C6CC6)C5)cc4C(F)(F)F)C3=O)c2)COC1 [Compound 174, (S)-6-((3-cyclopropyl-3-hydroxyazetidin-1-yl)methyl)-2-(3-(3-(fluoro(4-methyl-4H-1,2,4-triazol-3-yl)methyl)oxetan-3-yl)phenyl)-4-(trifluoromethyl)isoindolin-1-one]	190 nM	440 nM	2.3x
CCNc1cc(C2(Cc3nncn3C)COC2)cc(N2Cc3c(cc(CN4CCN(C)C[C@@H]4C(C)C)cc3C(F)(F)F)C2=O)n1 [Compound 291, (S)-2-(6-(ethylamino)-4-(3-((4-methyl-4H-1,2,4-triazol-3-yl)methyl)oxetan-3-yl)pyridin-2-yl)-6-((2-isopropyl-4-methylpiperazin-1-yl)methyl)-4-(trifluoromethyl)isoindolin-1-one]	12 nM	8.2 nM	(0.69x)
Cn1cc(-c2cc(C3(Cc4nncn4C)CCC3)cc(N3Cc4c(cc(CNC5(C)CCC5)cc4C(F)(F)F)C3=O)n2)cn1 [Compound 327, 2-(6-(1-methyl-1H-pyrazol-4-yl)-4-(1-((4-methyl-4H-1,2,4-triazol-3-yl)methyl)cyclobutyl)pyridin-2-yl)-6-(((1-methylcyclobutyl)amino)methyl)-4-(trifluoromethyl)isoindolin-1-one]	12 nM	12 nM	(1.0x)
CC(C)[C@H]1CN(C)CCN1Cc1cc2c(c(C(F)(F)F)c1)CN(c1cc(C3([C@H](F)c4nncn4C)CCC3)cc(NCC3CC3)n1)C2=O [Compound 279, 2-(6-((cyclopropylmethyl)amino)-4-(1-((S)-fluoro(4-methyl-4H-1,2,4-triazol-3-yl)methyl)cyclobutyl)pyridin-2-yl)-6-(((S)-2-isopropyl-4-methylpiperazin-1-yl)methyl)-4-(trifluoromethyl)isoindolin-1-one]	7.9 nM	10 nM	(1.4x)
Cn1cnnc1CC1(c2cc(C3CC3)cc(N3Cc4c(cc(CNC5(C)CCC5)cc4C(F)(F)F)C3=O)c2)COC1 [Compound 472, 2-(3-cyclopropyl-5-(3-((4-methyl-4H-1,2,4-triazol-3-yl)methyl)oxetan-3-yl)phenyl)-6-(((1-methylcyclobutyl)amino)methyl)-4-(trifluoromethyl)isoindolin-1-one]	15 nM	13 nM	(0.83x)
